Test: Storage stability at room temperature
Assay type: physicochemical

SMILES	storage stability at room temperature (water dissolution)	storage time at room temperature (air/water stability)
O=C(O)CN(CCN1CC(=O)OC(=O)C1)CCN1CC(=O)OC(=O)C1 [DTPA anhydride]	much unstable	–
O=C(CN(CCSC(c1ccccc1)(c1ccccc1)c1ccccc1)CC(=O)ON1C(=O)CCC1=O)NCCSC(c1ccccc1)(c1ccccc1)c1ccccc1 [SOCTA, succinimidyl-3,6-diaza-5-oxo-3-[2-((triphenyl-methyl)thio)ethyl]-8-[(triphenylmethyl)-thio]octanoate]	–	one
